Measured values reported in patent US20250367229A1, “Treatment of Immune-Related Disorders, Kidney Disorders, Liver Disorders, Hemolytic Disorders, and Oxidative Stress-Associated Disorders Using NRH, NARH and Reduced Derivatives Thereof” (MitoPower LLC, priority 2021, published 2025).

Legend:
red blood cells (RBCs) = assay: H2O2-induced hemolysis in vitro; format: cell-based; conditions: 2000, 200 and 20 μM, pre-incubation 1 hr at 37° C., then H2O2 4 hr
Protocol: Individual test compounds were dissolved in 0.9% normal saline to prepare 0.3 M stock solutions. A 0.3 M stock solution was added to a 20% suspension of washed red blood cells (RBCs) in saline to obtain final concentrations of 2000 μM, 200 μM and 20 μM of the compound. The RBC suspensions were incubated with the test compound at 37° C. for 1 hr prior to testing. A 2.5% H2O2 solution was prepared fresh by dilution with normal saline and chilled at 2-8° C. before use. Each RBC suspension containing the test compound was split into tubes A and B. 250 μL of the chilled H2O2 solution was added to 250 μL of RBC suspension in each tube while maintaining the tubes in an ice bath. The tubes were incubated at 37° C. for 4 hr, and then 4.5 mL of saline or de-ionized water was added to tube A or tube B, respectively. After the tubes were incubated for 10 min, the mixture in the tubes was centrifuged at 1800 g, and then absorbance was measured in the supernatant at 540 nm. The percentage of hemolysis was calculated as: […]

[1] = system: peripheral blood mononuclear cells (PBMCs); assay: Extracellular acidification rate (ECAR, a measure of glycolysis) in activated PBMCs, Seahorse XF; format: cell-based, human; conditions: 250 μM, 4 hr, PBMCs stimulated with anti-CD3 and anti-CD28 antibodies
Protocol: PBMCs (1.5×10^6) obtained from a healthy human adult donor were unstimulated or stimulated with anti-CD3 and anti-CD28 antibodies (1 μg/mL each) to induce T-cell activation, in the absence or presence of 250 μM NRH for 4 hr. The cells were then washed and plated on poly-D-lysine-coated Seahorse XF microplates at a density of 3×10^5 cells per well (5 replicates). The plates were centrifuged briefly and incubated at 37° C. in a non-CO2 incubator for 30 min to settle the cells in the bottom of the plate. Extracellular acidification rate (ECAR, a measure of glycolysis) and oxygen consumption rate (OCR, a measure of oxidative phosphorylation) were determined using a Seahorse XF cell mito stress test kit and a Seahorse Xfe96 analyzer (Agilent Technologies, Santa Clara, California) under basal condition or in response to 1.0 μM oligomycin (an inhibitor of ATP synthase), 1.5 μM carbonyl cyanide-p-trifluoromethoxyphenylhydrazone (FCCP, a mitochondrial uncoupler), 0.5 μM rotenone (an inhibitor of electron transport at complex I) and antimycin A (an inhibitor of electron transport at cytochrome c reductase). PBMCs include monocytes and lymphocytes including T cells, B cells and natural killer cells.

HEK293 cells = assay: NADH/NAD+ ratio in H2O2-exposed HEK293 cells (NAD/NADH-Glo); format: cell-based; conditions: NRH at 100 and 1000 μM, NR at all tested concentrations (0.01-1000 μM)
Protocol: HEK293 cells were trypsinized and plated at a density of 60,000 cells per well. The cells were then treated with H2O2 (600 μM prepared with Dulbecco's Modified Eagle Medium [DMEM]) for 30 min. The media was then replaced with serum media (DMEM supplemented with 10% fetal bovine serum [FBS]) containing NRH or NR, and were incubated at 37° C. under 6% CO2 for 30 min or 6 hr. The cells were incubated with the following concentrations of NRH or NR: 0.01, 0.1, 1.0, 10, 100 and 1000 μM. NAD^+ and NADH levels at 30 min and 6 hr were estimated using the NAD/NADH-Glo Promega Bioluminescent assay. The results were expressed as fold change relative to the values obtained with untreated cells.

RBC hemoglobin = assay: H2O2-induced oxidative changes of RBC hemoglobin in vitro (spectral scans); format: cell-based, human
Protocol: A 4 M stock solution of sodium azide was prepared. One mL of the 4 M stock azide solution was diluted with 9 mL of phosphate-buffered saline (PBS, pH 7.4) to obtain a 0.4 M stock solution, which was further diluted with PBS to obtain a 0.01 M working solution of sodium azide. Eight mL of whole blood was collected in buffered acid citrate dextrose tubes from a healthy human donor. PBS was added to 500 μL of whole blood. The samples were centrifuged, and then the supernatant from each tube was discarded to obtain a red blood cell (RBC) pellet. Ten μL of 0.01 M sodium azide working solution was added to 20 μL of RBC suspension. Twenty μL of hydrogen peroxide (H2O2) diluted in PBS was added to the RBC suspension to obtain final concentrations of H2O2 ranging from 0.01 mM to 100 mM. The samples were incubated at 37° C. for 1.5 hr. 950 μL of de-ionized water was added to the samples, which were then incubated for 10 min to lyse the RBCs and obtain hemoglobin upon centrifugation at 1,500 g. Spectral scans of the lysed samples between 200 nm and 1100 nm were obtained in 2 nm increments, using a Systronics® dual-beam UV-spectrophotometer and de-ionized water as a blank. Samples incubated with PBS at 37° C. for 1-1.5 hr were used as controls to establish the oxidative effects of H2O2 on RBC hemoglobin. Absorbance at 576 nm is a measure of hemoglobin concentration in a sample, and oxidation of hemoglobin to methemoglobin results in a drop in absorbance at 576 nm and an increase in absorbance at 630 nm. Fantao et al., Anal. Biochem., 521:11-19, (2017). Stock solutions of NRH (29.6 mM) and NR (18.3 mM) were prepared in 0.9% normal saline. Appropriate quantities of the stock NRH or NR solution and PBS were added to 500 μL of whole blood to obtain final concentrations of NRH or NR ranging from 1 μM to 1000 μM. The whole blood samples with NRH or NR were mixed gently and incubated at 37° C. for 1-1.5 hr. The samples were centrifuged, and then the supernatant was discarded to obtain an RBC pellet for each sample.

[2] = Stability in human serum in vitro (absorbance over time); format: in vitro ADME; conditions: 100 μM, 37° C.
Protocol: Three blood samples were collected from healthy human donors with the same blood group in serum separator vacutainer gel tubes. The samples were centrifuged at 1,800 g to separate serum. The serum samples obtained were pooled together into a separate tube.
NR, NRH and NRH-triacetate (NRHTA) were initially dissolved in DMSO and then diluted with normal saline to obtain a 1 mM stock solution of each compound. 100 μL of stock solution was added to 900 μL of pooled serum to assess the stability of the test compound in human serum. 200 μL of saline with 1,800 μL of pooled serum was used to prepare a solution for blanking and as a reference measurement. The stock solutions were diluted in the pooled serum and normal saline to prepare 100 μM solutions of the test compounds.
In previous experiments, spectral scans between 190 nm and 1100 nm were performed to determine absorbance maxima for NR, NRH and NRHTA, which have maximal absorbance at 265 nm, 340 nm and 331 nm, respectively, in solution.
The stability of a test compound in human serum was determined by a change in the concentration of the compound as measured by a change in absorbance at the maximal absorbance wavelength for the compound as a function of time. The test compounds at 100 μM were incubated in human serum at 37° C. Absorbance measurements were made at 0 min (T0), 5 min, 30 min, 120 min, 240 min, 360 min and 1440 min (24 hr). The relative change in absorbance compared to T0 was plotted and used for statistical analysis. The analysis was performed in triplicates.

CD4^+ T cells [3] = assay: Mitochondrial membrane depolarization (JC-1, flow cytometry) in CD4+ T cells; format: cell-based, human; conditions: 250 μM, 24 hr, unstimulated or stimulated with anti-CD3 and anti-CD28 antibodies
Protocol: (§1) PBMCs (10^6 cells per test group) obtained from healthy human adult donors were unstimulated or stimulated with anti-CD3 and anti-CD28 antibodies to induce T-cell activation, in the absence or presence of 250 μM of NRH or NRH-triacetate (NRHTA). Measurements were made at 5, 15 and 24 hr after treatment.
(§2) After the indicated time of incubation, the PBMCs were stained with anti-CD3, anti-CD4 and anti-CD8 antibodies (Biolegend), JC-1 (1 μM, Thermo Fisher) and annexin V (Thermo Fisher) prior to analysis by flow cytometry. Annexin V binds to cell-surface phosphatidylserine, which is a marker for different forms of cell death including apoptosis and necrosis. The stained cells were re-suspended in phosphate-buffered saline (PBS) and acquired in a Cytek Aurora flow cytometer using a FlowJo software (v10) for analysis. About 200,000-300,000 cells were acquired in the flow cytometer for analysis. Standard procedures for spectral compensation were performed to obtain cell populations. Lymphocytes identified by forward and side scatter were gated to obtain CD3^+/CD4^+ and CD3^+/CD8^+ T-cell populations. Those T-cell populations were gated to identify the red and green signals for JC-1 aggregate and monomer, respectively, and annexin V. The percentage of cells staining green by JC-1 monomer was used to determine the percentage of cells with depolarized mitochondria. […]

CD4^+ T cells [4] = assay: Ex vivo polyclonal immune activation model: cytokine production in CD4+ T cells; format: cell-based, human; conditions: stimulated with anti-CD3 and anti-CD28 antibodies; data not shown
Protocol: (§3) Heparinized venous blood was collected from healthy human adult donors. Peripheral blood mononuclear cells (PBMCs) were isolated by Ficoll-Hypaque density-gradient centrifugation. PBMCs (1.0×10^6) were seeded in round-bottom, 96-well plates in 200 μL of medium, unstimulated or stimulated with an anti-CD3 antibody ([…], clone-HIT3a, Biolegend) plus an anti-CD28 antibody (1 μg/mL, clone-CD28.2, Biolegend) to induce T-cell activation, and incubated in cell-culture medium. The PBMCs were unstimulated or stimulated with anti-CD3 and anti-CD28 antibodies to induce T-cell activation, in the absence or presence of 250 μM NRH. After 18 hours of incubation, lymphocytes were analyzed for intracellular levels of IFN-γ, TNF-α and IL-2 by flow cytometry. Intracellular cytokine production was stopped by treating the cells with Golgi stop after 1 hr of treatment.

CD8^+ T cells [5] = assay: Ex vivo polyclonal immune activation model: intracellular cytokine production in CD8+ T cells (flow cytometry); format: cell-based, human; conditions: stimulated with anti-CD3 and anti-CD28 antibodies; data not shown
Protocol: as §3

CD4^+ T cells [6] = assay: Cell death including apoptosis (annexin V, flow cytometry) of CD4+ T cells with depolarized mitochondria; format: cell-based, human; conditions: 250 μM, 24 hr, unstimulated or stimulated with anti-CD3 and anti-CD28 antibodies
Protocol: as §1, §2

CD8^+ T cells [7] = assay: Mitochondrial membrane depolarization (JC-1, flow cytometry) in CD8+ T cells; format: cell-based, human; conditions: 250 μM, 24 hr, unstimulated or stimulated with anti-CD3 and anti-CD28 antibodies
Protocol: as §1, §2

CD8^+ T cells [8] = assay: Cell death including apoptosis (annexin V, flow cytometry) of CD8+ T cells with depolarized mitochondria; format: cell-based, human; conditions: 250 μM, 24 hr, unstimulated or stimulated with anti-CD3 and anti-CD28 antibodies
Protocol: as §1, §2

Row | Compound | H2O2-induced hemolysis (red blood cells (RBCs)) | extracellular acidification rate (ECAR, a measure of glycolysis) in activated PBMCs [1] | NADH/NAD+ ratio in HEK293 cells exposed to H2O2 (HEK293 cells; 30 min of incubation) | NADH/NAD+ ratio in HEK293 cells exposed to H2O2 (HEK293 cells; 6 hr of incubation) | A576/A630 ratio (a measure of the hemoglobin/methemoglobin ratio) (RBC hemoglobin; RBCs exposed to 1 mM H2O2, 1 μM or 100 μM NRH, NR data not shown) | protection of hemoglobin from 1 mM H2O2-induced oxidative changes (amplitude of absorbance peaks at 576, 540, 434, 348 and 270 nm) (RBC hemoglobin; pre-incubation of RBCs with 1, 10 and 100 µM) | compound remaining intact in human serum within 5 min ([2]; within 5 min of addition, absorbance at 265 nm) | mitochondrial membrane depolarization in CD4+ T cells (CD4^+ T cells [3]) | production of pro-inflammatory cytokines (e.g., TNF-α, IL-2, IFN-γ) by CD4+ T cells (CD4^+ T cells [4]) | compound remaining intact in human serum after 6 hr ([2]; 6 hr) | compound remaining intact in human serum after 24 hr ([2]; 24 hr) | stability in human serum compared with NR ([2]; up to 24 hr, p<0.05) | production of pro-inflammatory cytokines (e.g., TNF-α, IL-2, IFN-γ) by CD8+ T cells (CD8^+ T cells [5]) | cell death including apoptosis of CD4+ T cells with depolarized mitochondria (CD4^+ T cells [6]) | mitochondrial membrane depolarization in CD8+ T cells (CD8^+ T cells [7]) | cell death including apoptosis of CD8+ T cells with depolarized mitochondria (CD8^+ T cells [8])
1 | CC(=O)OC[C@H]1O[C@@H]([n+]2cccc(C(N)=O)c2)[C@H](OC(C)=O)[C@@H]1OC(C)=O.O=S(=O)([O-])C(F)(F)F [NR-triacetate, 3-Carboxamide-N-(2,3,5-tri-O-acetyl-β-D-ribofuranosyl)pyridinium Triflate, reference compound] | neither NR (MP-02) nor NR-triacetate (MP-39) at any concentration tested, reduced H2O2-induced hemolysis |  |  |  |  |  |  |  |  |  |  |  |  |  |  | 
2 | NC(=O)c1ccc[n+]([C@@H]2O[C@H](CO)[C@@H](O)[C@H]2O)c1 [NR, nicotinamide riboside, reference compound] | neither NR (MP-02) nor NR-triacetate (MP-39) at any concentration tested, reduced H2O2-induced hemolysis | Unlike NR (data not shown), NRH reduced glycolysis | did not significantly affect | did not significantly affect | did not significantly affect | not with NR (MP02), protected hemoglobin | most of NR did not remain intact |  |  |  |  |  |  |  |  | 
3 | CC(=O)OC[C@H]1O[C@@H](N2C=CCC(C(N)=O)=C2)[C@H](OC(C)=O)[C@@H]1OC(C)=O [NRH-triacetate, N-(2,3,5-tri-O-acetyl-β-D-ribofuranosyl)dihydronicotinamide] | reduced H2O2-induced hemolysis |  |  |  |  |  |  | significantly induced | reduced production of pro-inflammatory cytokines | Most of both NRH and NRH-triacetate remained intact | about 50% | much more stable | reduced production of pro-inflammatory cytokines | reduced cell death | significantly induced | reduced cell death
